The record followed here is patent US20240366577A1, “CONTROLLED LONG-TERM DRUG DELIVERY AND METHODS THEREOF” (THE JOHNS HOPKINS UNIVERSITY, priority 2021, published 2024).

One data set relates to tumor endothelial CD31. The data set can be described thus: immunofluorescent staining of tumors: CD31. The conditions noted are these: single SC injection of 3 mg or 10 mg crystals, compared to daily bolus. It counts as in vivo, BALB/c mice. The method, then:
(§1) To confirm the effects seen at the level of RNA, immunofluorescent staining of excised tumor samples that were in parallel fixed with paraformaldehyde and embedded in paraffin was performed. […] Co-localization of CD31 with aSMact was, as expected, not linked in crystal sorafenib-treated tumors, where CD31 reduction was more extensive than with daily, bolus sorafenib.
(§2) Immunofluorescence imaging was used to determine anti-angiogenic drug efficacy. Tumor tissues were retrieved from mice and fixed overnight using 4% paraformaldehyde at 4° C. After fixation, retrieved tissue samples were moved to 70% ethanol. Samples were then processed for paraffin embedding, sectioning and staining. […] Next, tissues were incubated for 1 hour in an immunostaining cocktail solution consisting of NucBlue (Thermo), specific marker probes (1:200 dilution) anti-CD31 (Cat#DIA-310, HistoBioTec) and anti-alphaSmoothMuscle actin-Cy3 (Sigma) in Dako staining buffer. For CD31, a goat anti-rat alexa-fluor647 secondary antibody was also used (1:400). After staining, samples were rinsed again with 1X PBS three times prior to slides being cover slipped with Pro-long anti-fade Gold (Thermo). […] For stain quantification, images were converted into 8-bit image files, a background threshold was determined using NIH ImageJ, and then all images were processed using an NIH ImageJ macro to quantify the area of positive stain. […]

A short description of data set [1]: in vitro release under accelerated release conditions. Type of data set: physicochemical. Particulars: 37° C., PBS+0.3% SDS, 2.9 mg drug, 12-day time course; amorphous vs 50 μm vs 150-200 μm crystals. From the text: After crystals visibly stopped precipitating or growing, the vessel was submerged in an ultrasonic water bath for 10-30 seconds to dislodge crystals from the vessel sidewall and break them into more a uniform size distributions, either smaller fines, for example 50 μm, or between 150-200 μm, as measured by brightfield and scanning electron microscopy, shown in FIGS. 2A-2B. Resultant product was then removed from the supernatant mother solution, dried, weighed, and stored for later use. On average, yielded crystal was approximately 40% of the starting powder. Furthermore, methods exist to quantify solubilized material, typically using optics to identify changes in light transmittance, and enabled testing of crystal stability in a range of aqueous solutions. […] To simulate cumulative drug release over time, all 3 mL supernatant volumes were removed and replaced with completely fresh release media at desired times of 1 hr, 4 hr, 6 hr, 8 hr, 10 hr, 1 day, 2 days, 5 days, 7 days, 10 days and 12 days, and 200 μL aliquots were measured in individual wells of a 96-well plate at 266 nm to determine solubilize sorafenib release, as shown in FIG. 2D.
Release studies were carried out under accelerated conditions in PBS with 0.3% w/v SDS in 1X PBS. […] Drug concentration in samples was measured using a UV-calibrated Tecan infinite M200 PRO. […]

For data set [2], the system named is alpha Smooth Muscle actin (aSMact). Kind of data set: immunofluorescent staining of tumors: aSMact. Type of data set: in vivo, BALB/c mice. Particulars: single SC injection of 3 mg or 10 mg crystals, compared to daily bolus. The method, then: as §1, §2
A short description of data set [3]: crystals collected from vitreous fluid after intravitreal injection. Particulars: collected 2 weeks after injection; compared to larger crystalline sorafenib. Type of data set: in vivo, mouse.
Data set [4] has as its system macrophage Cd68 and myeloid Cd11b. The data set can be described thus: qPCR of retrieved tumors: immune markers. Type of data set: in vivo, BALB/c mice. The conditions noted are these: crystal treatment groups. (Quantitative PCR measures a nucleic acid by following its amplification.)

For the compound `CNC(=O)c1cc(Oc2ccc(NC(=O)Nc3ccc(Cl)c(C(F)(F)F)c3)cc2)ccn1` [crystalline sorafenib, sorafenib], the “tumor endothelial CD31 levels (immunofluorescence)” value in the data set with tumor endothelial CD31 is given as “reduction is greater”. The “release of solubilized sorafenib (cumulative)” value in data set [1] is on record as “tuned by varying crystal”. Also, the “tumor aSMact levels (immunofluorescence)” value in data set [2] is given as “reduction is less significant”. In addition, the “polymorph and crystal form of crystals recovered from vitreous fluid” value in data set [3] was “identical in polymorph and crystal form”. Moreover, the “Cd68 and Cd11b expression levels (qPCR)” value in data set [4] is listed as “no significant changes”.
